Test results: patent US11608325B2, “Polycrystalline form of dehydrophenylahistin-like compound, and manufacturing and purification method and application thereof” (Shenzhen Huahong Marine Biomedicine Co., Ltd., priority 2016, dated 2023)
Entries after “also recorded” stand apart in the source; their conditions may differ.

Experiments:
Format in all cases: physicochemical
[1] = Hygroscopicity test (Chinese Pharmacopoeia 2015 Volume IV, general rule 9103); conditions: for Weight gain: Left for 24 h
Procedure: The test was conducted according to the general rule 9103 of guiding principle for drug hygroscopicity test in Chinese Pharmacopoeia 2015 edition Volume IV, and the results are shown in Table 6.

[2] = High-temperature stress test (60° C.); conditions: for stability under high-temperature condition: stress testing, high temperature (60° C.); for Appearance / Content (HPLC) (calculated as an anhydride) / Relevant substance (HPLC) Impurity D / Relevant substance (HPLC) Total impurities / Relevant substance (HPLC) Impurity A: High-temperature test/60° C.; for Relevant substance (HPLC) Impurity A: LOQ (0.035%)
Procedure: (§1) In accordance with the general rule 9001 of guiding principles for stability tests of APIs and preparations in the Chinese Pharmacopoeia 2015 edition Volume IV, stress testing of the δ-crystalline form of (3Z,6Z)-3-benzylidene-6-[(5-tert-butyl-1H-imidazol-4-yl)deuteromethylene]piperazine-2,5-dione was conducted under high temperature, high humidity and illumination conditions, the sample batch number was 20150401, and the results are shown in Tables 7, 8 and 9 below.

[3] = Transformation of other crystalline forms under humidity or in water
[4] = Stability study of plinabulin polymorphs
[5] = High-humidity stress test (25° C., 90% RH); conditions: for stability / transformation under high-humidity condition: stress testing, high humidity (25° C., 90% RH); for Appearance / Content (HPLC) (calculated as an anhydride) / Relevant substance Impurity D / Relevant substance Total impurities / Relevant substance Impurity A: High-humidity test/25° C., 90% RH; for Relevant substance Impurity A: LOQ (0.035%)
Procedure: as §1

[6] = Illumination stress test (4500 Lx±500 Lx); conditions: for Appearance / Content (HPLC) (calculated as an anhydride) / Relevant substance (HPLC) Impurity D / Relevant substance (HPLC) Total impurities / Relevant substance (HPLC) Impurity A: Illumination test/4500Lx ± 500Lx; for Relevant substance (HPLC) Impurity A: LOQ (0.035%); for stability under illumination condition: stress testing, illumination (4500 Lx±500 Lx), monohydrate
Procedure: as §1

[7] = 6-month accelerated stability test (40° C.±2° C./75%±5% RH)
Procedure: Meanwhile, a 6-month accelerated stability test was conducted on the δ-crystalline form of (3Z,6Z)-3-benzylidene-6-[(5-tert-butyl-1H-imidazol-4-yl)deuteromethylene]piperazine-2,5-dione. The sample batch number was 20150404. Factory packaging was simulated. The test conditions were 40° C.±2° C./75%±5% RH.

[8] = after being stirred in water for 3 hours
[9] = listed as 20150401, monohydrate
[10] = listed as 20150402, monohydrate
[11] = listed as 20150403, monohydrate
[12] = listed as (3Z,6Z)-3-benzylidene-6-[(5-tert-butyl-1H-imidazol-4-yl)deuteromethylene]piperaz, monohydrate

Structure (SMILES): [2H]/C(c1nc[nH]c1C(C)(C)C)=c1/[nH]c(=O)/c(=C/c2ccccc2)[nH]c1=O [β-crystalline form, (3Z,6Z)-3-benzylidene-6-[(5-tert-butyl-1H-imidazol-4-yl)deuteromethylene]piperazine-2,5-dione]
- Hygroscopicity [1]: no hygroscopicity
- stability under high-temperature condition [2]: not stable enough
- transformation of crystalline form [3, 8]: most of which may transform into δ-crystalline form

Structure (SMILES): CC(C)(C)c1[nH]cnc1/C=c1\[nH]c(=O)/c(=C/c2ccccc2)[nH]c1=O.O [d-crystalline form, (3Z,6Z)-3-benzylidene-6-[(5-tert-butyl-1H-imidazol-4-yl)methylene]piperazine-2,5-dione monohydrate]
- stability [4]: high stability
- molecular stability ([4]; during preparation and storage processes): excellent molecular stability
- stability as solid API in stress testing ([4]; high temperature, high humidity and illumination conditions): remain stable

Structure (SMILES): [2H]/C(c1nc[nH]c1C(C)(C)C)=c1/[nH]c(=O)/c(=C/c2ccccc2)[nH]c1=O [α-crystalline form, (3Z,6Z)-3-benzylidene-6-[(5-tert-butyl-1H-imidazol-4-yl)deuteromethylene]piperazine-2,5-dione]
- Hygroscopicity [1]: certain hygroscopicity
- stability / transformation under high-humidity condition [5]: easily transformed into the δ-crystalline form; also recorded: absorbs moisture easily to transform into δ-crystalline form
- transformation of crystalline form ([3]; under 60% humidity condition): may partially transform into δ-crystalline form

Structure (SMILES): CC(C)O.[2H]/C(c1nc[nH]c1C(C)(C)C)=c1/[nH]c(=O)/c(=C/c2ccccc2)[nH]c1=O [ε-crystalline form, (3Z,6Z)-3-benzylidene-6-[(5-tert-butyl-1H-imidazol-4-yl)deuteromethylene]piperazine-2,5-dione monoisopropylate]
- stability under high-temperature condition [2]: not stable enough

Structure (SMILES): [2H]/C(c1nc[nH]c1C(C)(C)C)=c1/[nH]c(=O)/c(=C/c2ccccc2)[nH]c1=O [γ-crystalline form, (3Z,6Z)-3-benzylidene-6-[(5-tert-butyl-1H-imidazol-4-yl)deuteromethylene]piperazine-2,5-dione]
- Hygroscopicity [1]: no hygroscopicity
- stability under high-temperature condition [2]: not stable enough
- transformation of crystalline form [3, 8]: most of which may transform into δ-crystalline form

Structure (SMILES): CC(C)(C)c1[nH]cnc1/C=c1\[nH]c(=O)/c(=C/c2ccccc2)[nH]c1=O [a-crystalline form, (3Z,6Z)-3-benzylidene-6-[(5-tert-butyl-1H-imidazol-4-yl)methylene]piperazine-2,5-dione]
- Hygroscopicity ([4]; plinabulin crystalline forms): certain hygroscopicity
- transformation of crystalline form ([4]; under high humidity condition): easily transformed into a d-crystalline form

Structure (SMILES): O.[2H]/C(c1nc[nH]c1C(C)(C)C)=c1/[nH]c(=O)/c(=C/c2ccccc2)[nH]c1=O [δ-crystalline form, (3Z,6Z)-3-benzylidene-6-[(5-tert-butyl-1H-imidazol-4-yl)deuteromethylene]piperazine-2,5-dione monohydrate]
- Weight gain [1, 9]: 0.20 mg
- Weight gain [1, 10]: 0.24 mg
- Weight gain [1, 11]: 0.20 mg
- weight gain percentage ([1]; bottle opened for 24 hours): less than 0.2%
- Hygroscopicity [1, 9]: none
- Hygroscopicity [1, 10]: none
- Hygroscopicity [1, 11]: none
- Hygroscopicity ([1]; monohydrate): basically not hygroscopic
- Appearance ([2]; day 0): Yellow powder
- Content (HPLC) (calculated as an anhydride) ([2]; day 0): 99.7%
- Relevant substance (HPLC) Impurity D ([2]; day 0): Impurity D: 0.06%
- Relevant substance (HPLC) Total impurities ([2]; day 0): 0.07%
- Relevant substance (HPLC) Impurity A ([2]; day 0): Impurity A: <LOQ
- Appearance ([2]; day 5): Yellow powder
- Content (HPLC) (calculated as an anhydride) ([2]; day 5): 99.4%
- Relevant substance (HPLC) Impurity D ([2]; day 5): Impurity D: 0.06%
- Relevant substance (HPLC) Total impurities ([2]; day 5): 0.07%
- Relevant substance (HPLC) Impurity A ([2]; day 5): Impurity A: <LOQ
- Appearance ([2]; day 10): Yellow powder
- Content (HPLC) (calculated as an anhydride) ([2]; day 10): 99.8%
- Relevant substance (HPLC) Impurity D ([2]; day 10): Impurity D: 0.06%
- Relevant substance (HPLC) Total impurities ([2]; day 10): 0.07%
- Relevant substance (HPLC) Impurity A ([2]; day 10): Impurity A: <LOQ
- stability under high-temperature condition [2, 12]: remain stable
- stability under high-temperature condition ([2]; monohydrate): very stable; also recorded: relatively stable
- Appearance ([5]; day 0): Yellow powder
- Content (HPLC) (calculated as an anhydride) ([5]; day 0): 99.7%
- Relevant substance Impurity D ([5]; day 0): Impurity D: 0.06%
- Relevant substance Total impurities ([5]; day 0): 0.07%
- Relevant substance Impurity A ([5]; day 0): Impurity A: <LOQ
- Appearance ([5]; day 5): Yellow powder
- Content (HPLC) (calculated as an anhydride) ([5]; day 5): 99.5%
- Relevant substance Impurity D ([5]; day 5): Impurity D: 0.06%
- Relevant substance Total impurities ([5]; day 5): 0.07%
- Relevant substance Impurity A ([5]; day 5): Impurity A: <LOQ
- Appearance ([5]; day 10): Yellow powder
- Content (HPLC) (calculated as an anhydride) ([5]; day 10): 99.6%
- Relevant substance Impurity D ([5]; day 10): Impurity D: 0.06%
- Relevant substance Total impurities ([5]; day 10): 0.07%
- Relevant substance Impurity A ([5]; day 10): Impurity A: <LOQ
- stability / transformation under high-humidity condition [5, 12]: remain stable
- stability / transformation under high-humidity condition ([5]; monohydrate): very stable; also recorded: relatively stable
- Appearance ([6]; day 0): Yellow powder
- Content (HPLC) (calculated as an anhydride) ([6]; day 0): 99.7%
- Relevant substance (HPLC) Impurity D ([6]; day 0): Impurity D: 0.06%
- Relevant substance (HPLC) Total impurities ([6]; day 0): 0.07%
- Relevant substance (HPLC) Impurity A ([6]; day 0): Impurity A: <LOQ
- Appearance ([6]; day 5): Yellow powder
- Content (HPLC) (calculated as an anhydride) ([6]; day 5): 100.1%
- Relevant substance (HPLC) Impurity D ([6]; day 5): Impurity D: 0.05%
- Relevant substance (HPLC) Total impurities ([6]; day 5): 0.05%
- Relevant substance (HPLC) Impurity A ([6]; day 5): Impurity A: <LOQ
- Appearance ([6]; day 10): Yellow powder
- Content (HPLC) (calculated as an anhydride) ([6]; day 10): 99.8%
- Relevant substance (HPLC) Impurity D ([6]; day 10): Impurity D: 0.05%
- Relevant substance (HPLC) Total impurities ([6]; day 10): 0.05%
- Relevant substance (HPLC) Impurity A ([6]; day 10): Impurity A: <LOQ
- stability under illumination condition ([6]; listed as (3Z,6Z)-3-benzylidene-6-[(5-tert-butyl-1H-imidazol-4-yl)deuteromethylene]piperaz): remain stable
- stability under illumination condition [6]: very stable; also recorded: relatively stable
- stability in accelerated stability test ([7]; 6 months, monohydrate): very stable; also recorded: excellent stability
- Content (HPLC) (calculated as an anhydride) ([7]; month 0): 99.5%
- Relevant substance (HPLC) Impurity D ([7]; month 0): 0.06%
- Relevant substance (HPLC) Other single impurity ([7]; month 0): Not detected
- Relevant substance (HPLC) Total impurities ([7]; month 0): 0.07%
- Relevant substance (HPLC) Impurity A ([7]; month 0, LOQ (0.035%)): <LOQ
- Content (HPLC) (calculated as an anhydride) ([7]; month 1): 99.6%
- Relevant substance (HPLC) Impurity D ([7]; month 1): 0.06%
- Relevant substance (HPLC) Other single impurity ([7]; month 1): Not detected
- Relevant substance (HPLC) Total impurities ([7]; month 1): 0.08%
- Relevant substance (HPLC) Impurity A ([7]; month 1, LOQ (0.035%)): <LOQ
- Content (HPLC) (calculated as an anhydride) ([7]; month 2): 100.2%
- Relevant substance (HPLC) Impurity D ([7]; month 2): 0.06%
- Relevant substance (HPLC) Other single impurity ([7]; month 2): Not detected
- Relevant substance (HPLC) Total impurities ([7]; month 2): 0.08%
- Relevant substance (HPLC) Impurity A ([7]; month 2, LOQ (0.035%)): <LOQ
- Content (HPLC) (calculated as an anhydride) ([7]; month 3): 99.8%
- Relevant substance (HPLC) Impurity D ([7]; month 3): 0.06%
- Relevant substance (HPLC) Other single impurity ([7]; month 3): Not detected
- Relevant substance (HPLC) Total impurities ([7]; month 3): 0.08%
- Relevant substance (HPLC) Impurity A ([7]; month 3, LOQ (0.035%)): <LOQ
- Content (HPLC) (calculated as an anhydride) ([7]; month 6): 99.7%
- Relevant substance (HPLC) Impurity D ([7]; month 6): 0.06%
- Relevant substance (HPLC) Other single impurity ([7]; month 6): Not detected
- Relevant substance (HPLC) Total impurities ([7]; month 6): 0.08%
- Relevant substance (HPLC) Impurity A ([7]; month 6, LOQ (0.035%)): <LOQ
